Assay results from US9216991B2 (Ares Trading S.A., priority 2012, dated 2015).
Where a name gives a salt, the structure may show the parent alone.

molecular target: T1, IRAK4 (Homo sapiens, UniProt Q9NWZ3); assay: IRAK4 Enzymatic Assay; assay type: biochemical; details: His-TEV-IRAK4 20 ng/well, ATP 2 μM, STK1-biotin peptide 300 nM, 3 hours at 30° C., FlashPlate radioactivity
T1 construct: His (N); TEV cleavage site (N)
T1 sequence (Q9NWZ3 1-460): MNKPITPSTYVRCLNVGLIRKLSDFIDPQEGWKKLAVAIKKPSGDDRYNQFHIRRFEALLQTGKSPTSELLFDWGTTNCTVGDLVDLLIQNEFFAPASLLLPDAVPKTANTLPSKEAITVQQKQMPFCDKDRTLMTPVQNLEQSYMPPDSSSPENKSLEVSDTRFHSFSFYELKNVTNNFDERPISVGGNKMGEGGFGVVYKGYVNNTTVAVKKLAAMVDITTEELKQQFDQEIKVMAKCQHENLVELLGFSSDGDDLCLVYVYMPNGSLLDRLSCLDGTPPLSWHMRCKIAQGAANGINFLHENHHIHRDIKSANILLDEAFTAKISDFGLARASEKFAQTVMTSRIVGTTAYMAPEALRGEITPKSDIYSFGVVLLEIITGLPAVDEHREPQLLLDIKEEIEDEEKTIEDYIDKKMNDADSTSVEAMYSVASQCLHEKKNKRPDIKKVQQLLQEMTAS
Description: IRAK4 is a human purified recombinant enzyme (His-TEV-IRAK1 (194-712)
IRAK4 hydrolyses ATP, autophosphorylates and phosphorylates a Serine/Threonine generic peptidic substrate (STK: 61ST1BLC from CisBio International based in Bagnols/Cèze FR).
Measurement of IRAK-4 inhibition is performed in streptavidin coated 384 well FlashPlate (PerkinElmer #SMP410A). His-TEV-IRAK4 (20 ng/well), ATP (2 μM, [^33P]ATP 0.25 μCi/well), STK1-biotin peptide (300 nM) and compounds in DMSO (range of concentrations from 20 μM to 1nM) or controls (2% DMSO) are incubated for 3 hours at 30° C. in assay buffer: Hepes pH7.0 50 mM, Fatty acid-free BSA 0.1%, Dithiothreitol DTT 2 mM, MgCl2 10 mM, EGTA 0.5 mM, Tween-20 0.01%, MnCl2 5 mM.
Kinase reaction is stopped by addition of EDTA. Supernatant is discarded, plates are washed three times with 150 mM NaCl and radioactivity is then measured in a Microbeta Trilux reader.

| Structure (SMILES) | IC50 [nM] |
| --- | --- |
| CN(C)C(=O)C1CCC(n2cc(-c3cnc(-c4cccc(-c5cnn(C)c5)c4)nc3)cn2)CC1 (mixture of isomers) [Example 121, 4-(4-{2-[3-(1-Methyl-1H-pyrazol-4-yl)-phenyl]-pyrimidin-5-yl}-pyrazol-1-yl)-cyclohexanecarboxylic acid dimethylamide] | < 100 |
| CN(C)C(=O)C1CC2COCC(C1)C2n1cc(-c2cnc(-c3cccc(-c4cnn(C)c4)c3)nc2)cn1 (mixture of isomers) [Example 273, trans,cis-9-(4-{2-[3-(1-Methyl-1H-pyrazol-4-yl)-phenyl]-pyrimidin-5-yl}-pyrazol-1-yl)-3-oxa-bicyclo[3.3.1]nonane-7-carboxylic acid dimethylamide] | 100 to 1000 |
| Cn1cc(-c2cccc(-c3ncc(-c4cnn([C@@H]5CCC[S@@+]([O-])C5)c4)cn3)c2)cn1 (racemic) [Example 235, 2-[3-(1-Methyl-1H-pyrazol-4-yl)-phenyl]-5-[1-(Trans-1-oxo-tetrahydro-thiopyran-3-yl)-1H-pyrazol-4-yl]-pyrimidine] | 100 to 1000 |
| Cn1cc(-c2cccc(-c3ncc(-c4cnn([C@H]5CCC[S@@+]([O-])C5)c4)cn3)c2)cn1 (racemic) [Example 236, 2-[3-(1-Methyl-1H-pyrazol-4-yl)-phenyl]-5-[1-(Cis-1-oxo-tetrahydro-thiopyran-3-yl)-1H-pyrazol-4-yl]-pyrimidine] | < 100 |
| CNC(=O)[C@H]1CCC[C@@H](n2cc(-c3cnc(-c4cccc(-c5cnn(C)c5)c4)nc3)cn2)C1 (relative stereo) [Example 180, cis-3-(4-{2-[3-(1-Methyl-1H-pyrazol-4-yl)-phenyl]-pyrimidin-5-yl}-pyrazol-1-yl)-cyclohexanecarboxylic acid methylamide] | 100 to 1000 |
| CNC(=O)[C@H]1CCC[C@H](n2cc(-c3cnc(-c4cccc(-c5cnn(C)c5)c4)nc3)cn2)C1 (relative stereo) [Example 181, trans-3-(4-{2-[3-(1-Methyl-1H-pyrazol-4-yl)-phenyl]-pyrimidin-5-yl}-pyrazol-1-yl)-cyclohexanecarboxylic acid methylamide] | 100 to 1000 |
| CO[C@H]1CN(C(=O)[C@H]2CC[C@H](n3cc(-c4cnc(-c5cccc(-c6cnn(C)c6)c5)nc4)cn3)CC2)C[C@@H]1O (relative stereo) [Example 245, (Trans-3-Hydroxy-4-methoxy-pyrrolidin-1-yl)-[4-Trans-(4-{2-[3-(1-methyl-1H-pyrazol-4-yl)-phenyl]-pyrimidin-5-yl}-pyrazol-1-yl)-cyclohexyl]-methanone] | < 100 |
| Cn1cc(-c2cccc(-c3ncc(-c4cnn([C@H]5CCC[C@@H](N6CCOC6=O)C5)c4)cn3)c2)cn1 (relative stereo) [Example 257, 3-[cis-3-(4-{2-[3-(1-Methyl-1H-pyrazol-4-yl)-phenyl]-pyrimidin-5-yl}-pyrazol-1-yl)-cyclohexyl]-oxazolidin-2-one] | < 100 |
| Cn1cc(-c2cccc(-c3ncc(-c4cnn([C@@H]5CCNC[C@@H]5F)c4)cn3)c2)cn1 (relative stereo) [Example 265] | 100 to 1000 |
| CC(=O)N1CC[C@@H](n2cc(-c3cnc(-c4cccc(-c5cnn(C)c5)c4)nc3)cn2)[C@H](O)C1 (single isomer, unassigned) [Example 201] | 100 to 1000 |
| CC(=O)N1CC[C@H](n2cc(-c3cnc(-c4cccc(-c5cnn(C)c5)c4)nc3)cn2)[C@@H](O)C1 (single isomer, unassigned) [Example 202] | 100 to 1000 |
| CC(=O)N1CC[C@@H](n2cc(-c3cnc(-c4cccc(-c5cnn(C)c5)c4)nc3)cn2)[C@H](O)C1 (single isomer, unassigned) [Example 226] | 100 to 1000 |
| Cc1cc(-c2cccc(-c3ncc(-c4cnn([C@H]5CCCS(=O)(=O)C5)c4)cn3)c2)cnn1 (single isomer, unassigned) [Example 240] | 100 to 1000 |
| Cc1cc(-c2cccc(-c3ncc(-c4cnn([C@@H]5CCCS(=O)(=O)C5)c4)cn3)c2)cnn1 (single isomer, unassigned) [Example 241] | 100 to 1000 |
| Cn1cc(-c2cccc(-c3ncc(-c4cnn(C5CCC6(CCC(=O)N6)CC5)c4)cn3)c2)cn1 (single isomer, unassigned) [Example 251, Trans-8-(4-{2-[3-(1-Methyl-1H-pyrazol-4-yl)-phenyl]-pyrimidin-5-yl}-pyrazol-1-yl)-1-aza-spiro[4.5]decan-2-one] | 100 to 1000 |
| Cn1cc(-c2cccc(-c3ncc(-c4cnn(C5CCC[C@H](S(C)(=O)=O)C5)c4)cn3)c2)cn1 (single isomer, unassigned) [Example 279, 5-[1-(Cis-3-Methanesulfonyl-cyclohexyl)-1H-pyrazol-4-yl]-2-[3-(1-methyl-1H-pyrazol-4-yl)-phenyl]-pyrimidine] | < 100 |
| Cn1cc(-c2cccc(-c3ncc(-c4cnn(C5CCC[C@@H](S(C)(=O)=O)C5)c4)cn3)c2)cn1 (single isomer, unassigned) [Example 282, 5-[1-(trans-3-Methanesulfonyl-cyclohexyl)-1H-pyrazol-4-yl]-2-[3-(1-methyl-1H-pyrazol-4-yl)-phenyl]-pyrimidine] | 100 to 1000 |
| CN1C[C@H]2CC1CN2C(=O)Cn1cc(-c2cnc(-c3cccc(-c4cnn(C)c4)c3)nc2)cn1 (stereo in doubt) [Example 148, 1-((1R,4R)-5-Methyl-2,5-diaza-bicyclo[2.2.1]hept-2-yl)-2-(4-{2-[3-(1-methyl-1H-pyrazol-4-yl)-phenyl]-pyrimidin-5-yl}-pyrazol-1-yl)-ethanone] | 1000 to 5000 |
| Cn1cc(-c2cccc(-c3ncc(-c4cnn(C5CCCN(S(C)(=O)=O)C5)c4)cn3)c2)cn1 (stereo in doubt) [Example 272, 5-[(R)-1-(1-Methanesulfonyl-piperidin-3-yl)-1H-pyrazol-4-yl]-2-[3-(1-methyl-1H-pyrazol-4-yl)-phenyl]-pyrimidine] | < 100 |
| CC(=O)N1CCCC(n2cc(-c3cnc(-c4cccc(-c5cnn(C)c5)c4)nc3)cn2)C1 (stereo in doubt) [Example 274, 1-[3-((R)-4-{2-[3-(1-Methyl-1H-pyrazol-4-yl)-phenyl]-pyrimidin-5-yl}-pyrazol-1-yl)-piperidin-1-yl]-ethanone] | < 100 |
| Cn1cc(-c2cccc(-c3ncc(-c4cnn(C5CCNCC5)c4)cn3)c2)cn1 [Example 1, 2-[3-(1-Methyl-1H-pyrazol-4-yl)-phenyl]-5-(1-piperidin-4-yl-1H-pyrazol-4-yl)-pyrimidine hydrochloride] | 100 to 1000 |
| c1cncc(-c2cccc(-c3ncc(-c4cnn(C5CCNCC5)c4)cn3)c2)c1 [Example 2, 5-(1-(piperidin-4-yl)-1H-pyrazol-4-yl)-2-(3-(pyridin-3-yl)phenyl)pyrimidine hydrochloride] | 100 to 1000 |
| Cn1cc(-c2cccc(-c3ncc(-c4cn[nH]c4)cn3)c2)cn1 [Example 3, 2-[3-(1-methyl-1H-pyrazol-4-yl)phenyl]-5-(1H-pyrazol-4-yl)pyrimidine] | 100 to 1000 |
| Cn1cc(-c2cccc(-c3ncc(-c4cnn(C5CCN(C(=O)C(F)(F)F)CC5)c4)cn3)c2)cn1 [Example 4, 2,2,2-Trifluoro-1-[4-(4-{2-[3-(1-methyl-1H-pyrazol-4-yl)-phenyl]-pyrimidin-5-yl}-pyrazol-1-yl)-piperidin-1-yl]-ethanone] | 100 to 1000 |
